Assay results as given in ChEMBL document CHEMBL1909046, “DrugMatrix in vitro pharmacology data”.

What was measured:
Carbonic anhydrase 2 = Carbonic anhydrase 2 (Homo sapiens, UniProt P00918); assay: DRUGMATRIX: Carbonic Anhydrase II enzyme inhibition (substrate: 4-Nitrophenyl acetate (4-NPA)); assay type: tissue-based, Erythrocyte; conditions: erythrocyte; Not Active = under 50% inhibition at 10 µM
[1] = target: T1, Alpha-1B adrenergic receptor (Rattus norvegicus, UniProt P15823); assay: DRUGMATRIX: Alpha-1B adrenergic receptor radioligand binding (ligand: prazosin); assay type: cell membranes, Wistar, Liver, Membrane; conditions: Not Active = under 50% inhibition at 10 µM; for Ki: read-out: Ki
T1 sequence (P15823 whole entry): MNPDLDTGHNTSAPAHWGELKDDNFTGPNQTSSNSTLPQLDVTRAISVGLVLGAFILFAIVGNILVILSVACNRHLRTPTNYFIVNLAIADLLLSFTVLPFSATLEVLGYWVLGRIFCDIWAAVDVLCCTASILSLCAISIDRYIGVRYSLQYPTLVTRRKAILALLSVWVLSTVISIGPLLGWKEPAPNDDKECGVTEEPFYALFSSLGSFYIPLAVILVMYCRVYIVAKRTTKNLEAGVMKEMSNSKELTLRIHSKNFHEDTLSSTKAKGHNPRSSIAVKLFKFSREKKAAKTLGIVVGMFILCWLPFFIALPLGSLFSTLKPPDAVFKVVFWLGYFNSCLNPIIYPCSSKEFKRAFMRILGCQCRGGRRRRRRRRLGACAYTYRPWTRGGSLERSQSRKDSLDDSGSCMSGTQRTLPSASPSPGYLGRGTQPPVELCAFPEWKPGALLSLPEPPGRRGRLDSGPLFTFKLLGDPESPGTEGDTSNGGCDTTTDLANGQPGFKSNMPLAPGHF

Caspase-1 = target: T2, Caspase-1 (Homo sapiens, UniProt P29466); parameters: species or system Escherichia coli;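 note: Caspase-1 enzyme inhibition assay with a peptide substrate; in other assays of this panel Not Active means under 50% inhibition at 10 µM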
T2 sequence (P29466 whole entry): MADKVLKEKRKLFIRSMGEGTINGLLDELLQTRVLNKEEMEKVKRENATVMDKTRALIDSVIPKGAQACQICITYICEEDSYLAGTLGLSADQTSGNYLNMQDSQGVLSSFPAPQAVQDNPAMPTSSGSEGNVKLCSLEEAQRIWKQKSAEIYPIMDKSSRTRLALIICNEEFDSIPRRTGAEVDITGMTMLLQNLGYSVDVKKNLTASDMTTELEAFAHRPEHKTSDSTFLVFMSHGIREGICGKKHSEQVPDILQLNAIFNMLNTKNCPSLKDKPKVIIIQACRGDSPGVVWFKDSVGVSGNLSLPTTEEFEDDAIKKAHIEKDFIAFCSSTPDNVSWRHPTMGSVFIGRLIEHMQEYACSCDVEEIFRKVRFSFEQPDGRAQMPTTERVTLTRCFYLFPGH

Interstitial collagenase = target: T3, Interstitial collagenase (Homo sapiens, UniProt P03956); assay: biochemical; assay type: tissue-based, Rheumatoid synovial fibroblasts;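 note: MMP-1 enzyme inhibition assay using a peptide substrate; in other assays of this panel Not Active means under 50% inhibition at 10 µM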
T3 sequence (P03956 whole entry): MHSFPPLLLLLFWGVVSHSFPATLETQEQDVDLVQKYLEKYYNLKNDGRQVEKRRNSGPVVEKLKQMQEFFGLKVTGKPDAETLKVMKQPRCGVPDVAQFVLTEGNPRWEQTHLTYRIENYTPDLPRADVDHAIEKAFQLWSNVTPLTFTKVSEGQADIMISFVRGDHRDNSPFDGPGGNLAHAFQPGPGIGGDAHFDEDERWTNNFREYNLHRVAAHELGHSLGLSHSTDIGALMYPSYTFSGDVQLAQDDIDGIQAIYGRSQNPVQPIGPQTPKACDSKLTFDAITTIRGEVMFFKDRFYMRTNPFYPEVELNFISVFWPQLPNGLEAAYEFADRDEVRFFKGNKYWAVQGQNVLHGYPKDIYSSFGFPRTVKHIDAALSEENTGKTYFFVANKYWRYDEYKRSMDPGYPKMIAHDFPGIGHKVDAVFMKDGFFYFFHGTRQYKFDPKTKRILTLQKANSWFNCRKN

[2] = target: C-C chemokine receptor type 5 (Homo sapiens, UniProt P51681); assay type: cell membranes, HEK293, Membrane; note: in other assays of this panel Not Active means under 50% inhibition at 10 µM
[3] = DRUGMATRIX: Phosphodiesterase PDE3 enzyme inhibition (substrate: [3H]cAMP + cAMP); assay type: tissue-based, Homo sapiens; conditions: platelet, Not Active = under 50% inhibition at 10 µM
Leukotriene C4 synthase = target: T4, Leukotriene C4 synthase (Cavia porcellus, UniProt A6XA80); assay type: tissue-based, Lung;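 note: enzyme inhibition assay of leukotriene C4 synthase, using LTA4 as the substrate; in other assays of this panel Not Active means under 50% inhibition at 10 µM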
T4 sequence (A6XA80 whole entry): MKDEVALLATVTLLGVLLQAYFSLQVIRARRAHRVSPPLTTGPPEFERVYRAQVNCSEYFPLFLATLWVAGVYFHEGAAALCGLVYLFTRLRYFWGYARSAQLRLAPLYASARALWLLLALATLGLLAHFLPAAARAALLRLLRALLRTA

[4] = target: T5, Alpha-1D adrenergic receptor (Homo sapiens, UniProt P25100); assay type: cell membranes, HEK293, Membrane; note: in other assays of this panel Not Active means under 50% inhibition at 10 µM
T5 sequence (P25100 whole entry): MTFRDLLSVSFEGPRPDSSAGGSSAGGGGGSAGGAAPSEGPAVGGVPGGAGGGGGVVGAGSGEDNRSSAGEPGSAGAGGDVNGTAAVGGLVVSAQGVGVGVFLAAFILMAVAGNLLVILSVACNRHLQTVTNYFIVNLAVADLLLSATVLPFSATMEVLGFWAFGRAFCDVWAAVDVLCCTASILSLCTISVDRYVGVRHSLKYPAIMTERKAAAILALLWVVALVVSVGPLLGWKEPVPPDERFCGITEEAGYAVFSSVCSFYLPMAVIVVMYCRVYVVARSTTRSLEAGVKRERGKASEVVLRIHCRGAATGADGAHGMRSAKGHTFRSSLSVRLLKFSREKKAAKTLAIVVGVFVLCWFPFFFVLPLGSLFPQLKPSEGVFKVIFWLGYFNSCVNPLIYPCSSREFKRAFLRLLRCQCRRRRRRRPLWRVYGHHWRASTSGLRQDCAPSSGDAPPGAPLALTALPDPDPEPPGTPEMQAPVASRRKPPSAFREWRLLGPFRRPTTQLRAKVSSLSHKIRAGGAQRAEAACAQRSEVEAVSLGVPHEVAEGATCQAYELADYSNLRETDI

C-C chemokine receptor type 5, sequence (P51681 whole entry): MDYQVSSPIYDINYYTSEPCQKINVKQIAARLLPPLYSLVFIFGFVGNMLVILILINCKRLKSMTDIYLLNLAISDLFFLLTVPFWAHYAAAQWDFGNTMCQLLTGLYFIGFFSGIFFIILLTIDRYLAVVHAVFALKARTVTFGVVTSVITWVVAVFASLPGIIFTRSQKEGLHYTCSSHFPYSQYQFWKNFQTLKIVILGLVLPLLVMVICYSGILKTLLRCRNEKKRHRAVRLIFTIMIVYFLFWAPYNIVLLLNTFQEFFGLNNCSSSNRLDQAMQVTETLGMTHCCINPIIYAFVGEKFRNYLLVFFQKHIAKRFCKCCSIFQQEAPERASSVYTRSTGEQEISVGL

O=C(c1ccc(OCCN2CCCCC2)cc1)c1c(-c2ccc(O)cc2)sc2cc(O)ccc12 [RALOXIFENE]
1.49 µM: Ki [1]
0.973 µM: IC50 ([4]; read-out: IC50)
0.478 µM: Ki ([4]; read-out: Ki)
2.69 µM: IC50 ([1]; read-out: IC50)
Not Active: IC50 (Carbonic anhydrase 2) | IC50 (Caspase-1) | IC50 (Interstitial collagenase) | IC50 ([2]; hek293) | IC50 [3] | Ki [3] | IC50 (Leukotriene C4 synthase)

CN1C(C(=O)Nc2ccccn2)=C(O)c2sccc2S1(=O)=O [TENOXICAM]
Not Active: IC50 (Carbonic anhydrase 2) | IC50 [1] | IC50 (Caspase-1) | IC50 (Interstitial collagenase) | IC50 ([2]; hek293) | IC50 [3] | Ki [3] | IC50 (Leukotriene C4 synthase) | IC50 ([4]; hek293)

CC(=O)N[C@@H]1[C@H](Oc2c3cc4cc2Oc2ccc(cc2Cl)[C@@H](O[C@@H]2O[C@@H](CO)[C@@H](O)[C@H](O)[C@@H]2NC(C)=O)[C@@H]2NC(=O)[C@H](NC(=O)[C@@H]4NC(=O)[C@H]4NC(=O)[C@@H](Cc5ccc(c(Cl)c5)O3)NC(=O)[C@H](N)c3ccc(O)c(c3)Oc3cc(O)cc4c3)c3ccc(O)c(c3)-c3c(O[C@H]4O[C@H](CO)[C@@H](O)[C@@H](O)[C@@H]4O)cc(O)cc3[C@@H](C(=O)O)NC2=O)O[C@@H](CO)[C@@H](O)[C@@H]1O
Not Active: IC50 (Carbonic anhydrase 2) | IC50 [1] | IC50 (Caspase-1) | IC50 (Interstitial collagenase) | IC50 ([2]; hek293) | IC50 [3] | Ki [3] | IC50 (Leukotriene C4 synthase) | IC50 ([4]; hek293)

COCCCOc1ccnc(C[S+]([O-])c2nc3ccccc3[nH]2)c1C (configuration not stated) [RABEPRAZOLE]
Not Active: IC50 (Carbonic anhydrase 2) | IC50 [1] | IC50 (Caspase-1) | IC50 (Interstitial collagenase) | IC50 ([2]; hek293) | IC50 (Leukotriene C4 synthase) | IC50 ([4]; hek293)
2.29 µM: IC50 ([3]; read-out: IC50)

CO[C@H]1/C=C/O[C@@]2(C)Oc3c(C)c(O)c4c(c3C2=O)C2=NC3(CCN(CC(C)C)CC3)NC2=C(NC(=O)/C(C)=C\C=C\[C@H](C)[C@H](O)[C@@H](C)[C@@H](O)[C@@H](C)[C@H](OC(C)=O)[C@@H]1C)C4=O [RIFABUTIN]
Not Active: IC50 (Carbonic anhydrase 2) | IC50 [1] | IC50 (Caspase-1) | IC50 (Interstitial collagenase) | IC50 ([2]; hek293) | IC50 [3] | Ki [3] | IC50 (Leukotriene C4 synthase) | IC50 ([4]; hek293)

CNC(=C[N+](=O)[O-])NCCSCc1ccc(CN(C)C)o1 [RANITIDINE]
Not Active: IC50 (Carbonic anhydrase 2) | IC50 [1] | IC50 (Caspase-1) | IC50 (Interstitial collagenase) | IC50 ([2]; hek293) | IC50 [3] | Ki [3] | IC50 (Leukotriene C4 synthase) | IC50 ([4]; hek293)

CC1=C(CC(=O)O)c2cc(F)ccc2/C1=C\c1ccc([S+](C)[O-])cc1 (configuration not stated)
Not Active: IC50 (Carbonic anhydrase 2) | IC50 [1] | IC50 (Caspase-1) | IC50 (Interstitial collagenase) | IC50 ([2]; hek293) | IC50 [3] | Ki [3] | IC50 (Leukotriene C4 synthase) | IC50 ([4]; hek293)

CC(=O)CC(c1ccccc1)c1c(O)c2ccccc2oc1=O (configuration not stated) [WARFARIN]
Not Active: IC50 (Carbonic anhydrase 2) | IC50 [1] | IC50 (Caspase-1) | IC50 (Interstitial collagenase) | IC50 ([2]; hek293) | IC50 [3] | Ki [3] | IC50 (Leukotriene C4 synthase) | IC50 ([4]; hek293)

CC(C)(C)c1ccc(C(O)CCCN2CCC(C(O)(c3ccccc3)c3ccccc3)CC2)cc1 (configuration not stated) [TERFENADINE]
Not Active: IC50 (Carbonic anhydrase 2) | IC50 (Caspase-1) | IC50 (Interstitial collagenase) | IC50 [3] | Ki [3] | IC50 (Leukotriene C4 synthase) | IC50 ([4]; hek293)
3.34 µM: IC50 ([1]; read-out: IC50)
0.852 µM: Ki ([2]; read-out: Ki)
1.85 µM: Ki [1]
1.1 µM: IC50 ([2]; read-out: IC50)

C[C@@H](N)[C@H]1CC[C@H](C(=O)Nc2ccncc2)CC1 [Y-27632]
Not Active: IC50 (Carbonic anhydrase 2) | IC50 [1] | IC50 (Caspase-1) | IC50 (Interstitial collagenase) | IC50 ([2]; hek293) | IC50 [3] | Ki [3] | IC50 (Leukotriene C4 synthase) | IC50 ([4]; hek293)

CC(C)c1nc(CN(C)C(=O)N[C@H](C(=O)N[C@@H](Cc2ccccc2)C[C@H](O)[C@H](Cc2ccccc2)NC(=O)OCc2cncs2)C(C)C)cs1 [RITONAVIR]
Not Active: IC50 (Carbonic anhydrase 2) | IC50 [1] | IC50 (Caspase-1) | IC50 (Interstitial collagenase) | IC50 ([2]; hek293) | IC50 [3] | Ki [3] | IC50 (Leukotriene C4 synthase) | IC50 ([4]; hek293)
